Experimental data as given in US20220274935A1, “PHARMACEUTICAL COMPOSITION FOR PREVENTING OR TREATING BONE DISEASES” (INDUSTRY FOUNDATION OF CHONNAM NATIONAL UNIVERSITY, priority 2019, published 2022).

Experiments:
[1] = test system: bone resorption ability of osteoclasts (mouse bone marrow cells); test: Bone resorption assay kit, 35D3 (PPOA); assay type: cell-based; settings: exposure to 3, 6, and 10 μM; FIG. 19
Experimental: Further, the bone resorption ability was confirmed using a bone resorption assay kit (Cosmo Bio, CSR-BRA). Mouse bone marrow cells were seeded on a bone resorption assay plate 48 (2×10^4 cells/well) containing 30 ng/Ml of M-CSF. […] The next day, the culture supernatant from the cells was collected on a 96-well black polypropylene micro-well plate (Thermo Fisher Scientific Nunc, Waltham, Md., USA). After mixing 50 μL of 0.1 N of NaOH, fluorescence intensity was measured with a fluorescence plate reader (Molecular Devices, San Jose, Calif., USA-model: SpectraMax i3x); and the excitation and emission wavelengths were […] and 535 nm, respectively. The absorption area was calculated in consideration of 10 randomly selected pictures per well taken at 10 magnification using Image J software (https://imagej.nih.gov/ij).

[2] = test system: ovariectomized mouse model (OVX); test: Ovariectomized (OVX) mouse osteoporosis model, tibia micro-computed tomography; assay type: in vivo; settings: OVX mice, intraperitoneal once every two days, after 4 weeks, microcomputer tomography; FIGS. 11 to 14
Experimental: An ovariectomized mouse model (OVX, ovariectomized mouse) with osteoporosis due to estrogen deficiency after ovariectomy in 8-week-old female mouse were prepared. Compounds (35D35, 35D5, and 35D3), respectively, were injected intraperitoneally once every two days to the ovariectomized mouse model. After 4 weeks, the tibia of each mouse was analyzed for bone density by microcomputer tomography.
FIGS. 11 to 14 show the micro-computed tomography results (Sham: the control in which the ovaries were not removed) and graphs for analysis of the micro-computed tomography results with regard to the tibia of the mouse models (*P<0.05, **P<0.01, and ***P<0.001 vs. the control, OVX. BMD: trabecular bone mineral density).

[3] = test system: F-actin formation in mouse bone marrow cells; test: F-actin staining for differentiation into multinuclear cells, 35D3 (PPOA); assay type: cell-based; settings: 6 uM, cultured 4 to 5 days; FIG. 18
Experimental: In order to determine the activity of differentiated osteoclasts, an ability of differentiating into multinuclear cells was measured through F-actin staining. 5×10^4 mouse bone marrow cells per well was put into a 24-well plate in which glass coated with L-Lysine was placed (Corning, 354085). At the same time, the cells were treated with 6 uM of 35D3 (PPOA) and then cultured for 4 to 5 days. The differentiated cells were fixed with 4% formaldehyde for 10 minutes and washed with PBS. For an antigen-antibody reaction, the cells were subjected to a reaction in 0.1% Triton-PBS for 20 minutes, followed by a reaction with 1% BSA for 1 hour. The F-actin antibody (Thermo Fisher Scientific, A12379) was reacted for 1 hour and then washed. Cell nuclei were stained through DAPI (4′,6-Diamidino-2-Phenylindole, Dilactate, Thermo Fisher Scientific, D3571) staining, and then, photographed under a microscope. As a result, it was confirmed that the size of F-actin was different depending on the presence or absence of 35D3 (PPOA) treatment (see FIG. 18).

preosteoclasts = test: MTT assay for cytotoxicity assessment (cell viability); assay type: cell-based, mouse; settings: MCSF 30 ng/mL, concentration of 10 uM
Experimental: MTT Assay for Cytotoxicity Assessment
After treatment of preosteoclasts with 35D35 or 35D3 (=PPOA) (1-10 uM), cell viability was evaluated. Specifically, 1×10^4 cells per well were put into a 96-well plate, and only MCSF (30 ng/mL) and PPOA were cultured by day under the indicated concentration conditions. Thereafter, a cell viability assay reagent (DoGen, EZ-3000) was used with 1/10 of the volume of the medium for treatment, and then the cells were incubated at 37° C. for 30 minutes and observed at […]. […] That is, it was confirmed that there was no cytotoxicity.

[4] = test system: RANKL-induced F-actin belt formation in BMM; test: F-actin ring (belt) formation ability of differentiated osteoclasts; assay type: cell-based, mouse; settings: for inhibition of RANKL-induced F-actin belt formation: FIG. 5
Experimental: In order to confirm the activity of differentiated osteoclasts, F-actin ring formation ability was measured. Specifically, BMM was seeded on a 12 mm cover glass with or without compounds (35D3: 6 μM, 35D5 and 35D35: 2 μM), followed by M-CSF and LANKL treatment. After the osteoclasts were formed in the control, the osteoclasts were fixed in 4.0% paraformaldehyde for 15 minutes, and then incubated in 5% FBS and blocked for about 60 minutes. After washing with PBS, rhodamine-conjugated phalloidin (1:40) was added to each well to visualize a F-actin belt. After 20 minutes, the cells were incubated along with a DAPI (1:5000) solution for 5 minutes. After washing three times with PBS, cells were observed using a fluorescence microscope.
A F-actin size was measured using Image J.

[5] = test system: osteoclast differentiation of monocytes isolated from the mouse bone marrow; test: Osteoclast differentiation inhibitory ability through TRAP staining and assay (RANKL-induced monocytes); assay type: cell-based; settings: for degree of osteoclast differentiation by TRAP staining: treated together with RANKL, compared to other derivatives, FIG. 1
Experimental: The bone marrow of a 10-week-old female mouse was isolated from the hip bone, femur and tibia, followed by culturing the same in α-MEM medium (Gibco, 12561-056, 10% fetal bovine serum, 1% penicillin/streptomycin) containing macrophage colony stimulating factor (M-CSF, PeproTech, 315-02, 30 ng/ml) for 3 days in order to isolate only monocytes. The isolated monocytes were treated with receptor activator of nuclear factor kappa B ligand (RANKL, PeproTech, 315-11, 50 ng/ml) to induce osteoclast differentiation. During RANKL treatment, each compound (35D35, 35D5, 35D3, and 35D8) was used for treatment and the cells were cultured for 3 or 5 days so as to confirm the degree of osteoclast differentiation.
1×10^4 monocytes isolated from the mouse bone marrow were put into a 96-well plate and treated with each compound (35D35, 35D5, 35D3, and 35D8) together with RANKL, thereby confirming the effects of each compound on osteoclast differentiation ability. Using the TRAP activity assay kit (Cosmo Bio, PMC-AK04F-COS), the activity of tartrate-resistant acid phosphatase (TRAP) with increased expression during osteoclast differentiation was confirmed. […] After staining, multinuclear cells formed during osteoclast differentiation were confirmed under a microscope. Further, each well was photographed and a differentiation area ratio per total area was determined using Image J software.
Further, the effects of the 35D35 compound having excellent osteoclast production inhibitory ability with respect to osteoclast differentiation period was investigated. Specifically, BMM was divided into 5 groups (Ctrl, Period I to IV), and cultured for 4 days in a culture medium containing 30 ng/mL M-CSF and 50 ng/mL RANKL. BMMs in Period I to IV groups were exposed to 1 μM 35D35 for 24 hours on different days, respectively. After 4 days, the cells of each group were fixed, followed by TRAP staining, and then, the presence of osteoclasts was confirmed.

[6] = test system: osteoclast differentiation of monocytes isolated from the mouse bone marrow; test: Osteoclast differentiation inhibitory ability of 35D3 (PPOA) through TRAP staining and analysis; assay type: cell-based; settings: 3 μM, compared to group in which osteoclasts were differentiated normally
Experimental: The bone marrow of a 12-week-old female mouse was isolated from the hip bone, femur and tibia, followed by culturing the same in α-MEM medium (Gibco, 12561-056, 10% fetal bovine serum, 1% penicillin/streptomycin) containing macrophage colony stimulating factor (M-CSF, PeproTech, cat #315-02, 30 ng/ml) for 3 days in order to isolate only monocytes. The isolated monocytes were treated with RANKL (PeproTech, cat #315-11, 50 ng/ml) to induce osteoclast differentiation. Then, 35D3 (PPOA) was also used for treatment, followed by culturing the cells for 3 days or 5 days.
1×10^4 monocytes isolated from the mouse bone marrow were put into a 96-well plate and treated with RANKL to confirm the effect of 35D3 (PPOA) (3 μM) on osteoclast differentiation ability.
The activity of tartrate-resistant acid phosphatase (TRAP), which has increased expression during osteoclast differentiation, was confirmed using a TRAP activity assay kit (Sigma-Aldrich, 387A-1kt), which is shown in FIG. 16.
After staining, the multinuclear cells formed during osteoclast differentiation were observed under a microscope, and 12 images per well were photographed and combined into one well image, and a differentiation area ratio per total area was confirmed using Image J software. The differentiation area ratio per total area is shown in A of FIG. 17, and the area of TRAP-positive cells (nuclear number >3) was compared with DMSO (100%) and presented as a relative value.
Further, the number of differentiated osteoclasts was counted and determined, and this was shown in B of FIG. 17, and cells in which the number of cell nuclei contained in the differentiated osteoclasts is in the range of 3-5, 6-10, 11-20, and 21 or more, were classified and shown in C of FIG. 17.

[7] = test system: osteoclast-specific genes AcP5 (TRAP), NFATc1, DC-STAMP, ATP6v0d2, MMP9 and CTSK; test: RT-PCR of osteoclast-specific gene mRNA expression; assay type: cell-based, mouse; settings: 1 μM, compared to the control not treated (Ctrl); FIG. 8
Experimental: (§1) In order to confirm the expression degree of the osteoclast-specific gene, an mRNA expression level was measured by RT-PCR in cells treated with 35D35 (1 μM) and 35D3 (6 μM) compounds, respectively. RNA was isolated from cells differentiated into osteoclasts using an RNA extraction kit, and cDNA was synthesized from 0.5 μg of RNA, which was quantified through a spectrophotometer, using a reverse transcriptase (Takara, RR037 A). Thereafter, QRT-PCR was performed using cDNA synthesized by QuantStudio 3 real-time PCR system (Applied Biosystems). After treating the cells with lysates, immunoblotting was conducted with an anti-Ctsk antibody. At this time, β-actin was used as a loading control.

[8] = test system: Ctsk protein expression in osteoclasts; test: Immunoblotting with anti-Ctsk antibody; assay type: cell-based, mouse; settings: 35D35 1 μM compared to 35D3 6 μM; FIG. 9
Experimental: as §1

[9] = test system: hBMP2-induced osteoblast differentiation of precursor cells from mouse skull; test: ALP staining for analysis of osteoblast differentiation ability; assay type: cell-based, C57BL/6J mouse; settings: hBMP2 100 ng/ml, 7 days; FIG. 10
Experimental: After collecting cells from C57BL/6J mouse calvara at the age of 3 days, the cells were seeded on a 96-well plate in an amount of 4×10^3 cells per well, and then treated with 100 ng/ml of hBMP2 as a differentiation inducer. Simultaneously with the differentiation inducer treatment, the cells were treated with the 35D35 compound and cultured for 7 days, followed by ALP staining to assess differentiation influence. Specific experimental methods and results are as follows.
Precursor cells isolated from the mouse skull were treated with hBMP2 (Bone morphogenic protein 2, Sino biological, 10426-HNAE, 100 ng/ml) to induce differentiation into osteoblasts. Differentiated osteoblasts could be discriminated through alkaline phosphatase (ALP) staining as an osteoblast-specific protein. When the progenitor cells were treated with hBMP2, each of the 35D35 compounds was also used for treatment, followed by culturing the cells for 7 days while changing the medium every 2 to 3 days. […]
After discarding the ethanol, the remaining product was washed with HBSS, followed by adding a NBT solution (Sigma, B1911) in an amount of 100 μl per well and staining for 15 minutes. […] After ALP staining, a degree of color development was measured using Image J software, and then graphed for comparison.

[10] = test system: bone resorption ability of osteoclasts (BMM); test: Bone resorption assay kit (fluoresceinamine-labeled calcium phosphate plate); assay type: cell-based, mouse; settings: 0.5 uM, 6 days, compared to control cells not treated (Ctrl); FIG. 7
Experimental: In addition, the bone resorption ability of 35D35 was measured using a bone resorption assay kit (Cosmo Bio, CSR-BRA). Specifically, BMM was seeded on a fluoresceinamine-labeled calcium phosphate plate, followed by 35D35 treatment with various doses. After 6 days, a fluorescence intensity was measured at absorption and emission wavelengths of 485 nm and 535 nm, respectively, using a fluorescent reader. Further, a resorption pit area was calculated using Image J. As a result, it was confirmed that the bone resorption ability was reduced by about 10% in the cells treated with 0.5 uM of 35D35, as compared to the control cells not treated with the compound (Ctrl) (see FIG. 7, scale bar=200 μm, “Con”=M-CSF+RANKL treatment group, “M”=M-CSF treatment group).

Row | SMILES | proportion of bone resorption area [1] | bone density of tibia vs control (OVX) [2] | bone volume of tibia vs control (OVX) [2] | differentiation into multinuclear cells (size of F-actin) [3] | cytotoxicity (cell viability, apoptosis effects) (preosteoclasts) | inhibition of RANKL-induced F-actin belt formation ([4]; 6 μM) | degree of osteoclast differentiation by TRAP staining [5] | giant multinuclear cells ([6]; FIG. 17) | number of osteoclasts ([6]; FIG. 17) | differentiation area (TRAP-positive cells per total area) ([6]; FIGS. 16 and 17) | amount of mRNA expression of osteoclast-specific genes AcP5 (TRAP), NFATc1, DC-STAMP, ATP6v0d2, MMP9 and CTSK [7] | Ctsk protein expression [8] | effect on osteoblast differentiation (ALP staining intensity) [9] | decrease of F-actin ring formation ability ([4]; 0.5 uM, F-actin size by Image J, FIG. 6) [%] | inhibition of RANKL-induced F-actin belt formation ([4]; 2 μM) | reduction of bone resorption ability [10] | osteoclast differentiation by exposure period (TRAP staining) ([5]; 1 μM for 24 hours on different days, 4 days culture with M-CSF and RANKL, exposure in initial 24 hours, FIG. 4) | osteoclast differentiation area ratio per total area (TRAP staining, Image J) ([5]; concentration of 0.5 uM, FIG. 2)
1 | CC(=O)N1CCN(c2ccccc2NC(=O)COc2ccccc2Cl)CC1 [35D3, N-(2-(4-acetylpiperazin-1-yl)phenyl)-2-(2-chlorophenoxy)acetamide] | significant decrease | did not exhibit higher | did not exhibit higher | could inhibit differentiation into multinuclear cells | apoptosis effects were not exhibited | excellent effects of inhibiting RANKL-induced F-actin belt formation | superior osteoclast differentiation inhibitory effects compared to other derivatives | significantly reduced | significantly reduced | significantly reduced |  |  |  |  |  |  |  | 
2 | CCC(=O)N1CCN(c2ccccc2NC(=O)COc2ccccc2Cl)CC1 [35D35, 2-(2-chlorophenoxy)-N-[2-(4-propionyl-1-piperazinyl)phenyl]acetamide] |  | higher | higher |  | apoptosis effects were not exhibited |  | superior osteoclast differentiation inhibitory effects compared to other derivatives |  |  |  | decreased | strongly inhibited even at a low concentration | did not affect osteoblasts | ≥ 50 | excellent effects of inhibiting RANKL-induced F-actin belt formation | about 10% | osteoclast differentiation was inhibited for the initial 24 hours | effective osteoclast differentiation inhibitory ability
